Assays:
Details in all cases: 72 h
Calu-3 [1] = assay: cell viability relative to DMSO; higher = less toxic
Vero E6 [2] = assay: as above
U2OS [3] = assay: as above
Caco-2 [4] = assay: as above
HepG2 [5] = assay: as above
Calu-3 [6] = assay: drug sensitivity score (DSS) for viability; higher = more toxic; extreme values may be limits of the assay
Vero E6 [7] = assay: as above
U2OS [8] = assay: as above
Caco-2 [9] = assay: as above
HepG2 [10] = assay: as above
Vero E6 [11] = assay: relative viability EC50 (midpoint between 100% and the lowest measured viability); higher = less toxic
U2OS [12] = assay: as above
HepG2 [13] = assay: as above
Calu-3 [14] = assay: as above

Row | Structure (SMILES) | cell viability (Calu-3 [1]; 1 nM) | cell viability (Calu-3 [1]; 10 nM) | cell viability (Calu-3 [1]; 100 nM) | cell viability (Calu-3 [1]; 1000 nM) | cell viability (Calu-3 [1]; 10000 nM) | cell viability (Vero E6 [2]; 1 nM) | cell viability (Vero E6 [2]; 10 nM) | cell viability (Vero E6 [2]; 100 nM) | cell viability (Vero E6 [2]; 1000 nM) | cell viability (Vero E6 [2]; 10000 nM) | cell viability (U2OS [3]; 1 nM) | cell viability (U2OS [3]; 10 nM) | cell viability (U2OS [3]; 100 nM) | cell viability (U2OS [3]; 1000 nM) | cell viability (U2OS [3]; 10000 nM) | cell viability (Caco-2 [4]; 1 nM) | cell viability (Caco-2 [4]; 10 nM) | cell viability (Caco-2 [4]; 100 nM) | cell viability (Caco-2 [4]; 1000 nM) | cell viability (Caco-2 [4]; 10000 nM) | cell viability (HepG2 [5]; 1 nM) | cell viability (HepG2 [5]; 10 nM) | cell viability (HepG2 [5]; 100 nM) | cell viability (HepG2 [5]; 1000 nM) | cell viability (HepG2 [5]; 10000 nM) | drug sensitivity score (Calu-3 [6]) | drug sensitivity score (Vero E6 [7]) | drug sensitivity score (U2OS [8]) | drug sensitivity score (Caco-2 [9]) | drug sensitivity score (HepG2 [10]) | relative viability EC50 (Vero E6 [11]) | relative viability EC50 (U2OS [12]) | relative viability EC50 (HepG2 [13]) | relative viability EC50 (Calu-3 [14])
1 | CC(C)(C)c1ccc(NC(=O)N2CCN(c3ncccc3Cl)CC2)cc1 [BCTC] | 98.1% | 101% | 99.5% | 102% | 71.2% | 99% | 101% | 100% | 94.4% | 86.1% | 99.3% | 106% | 97.4% | 101% | 95% | 88.8% | 99.6% | 92.8% | 89.9% | 62.2% | 99.3% | 92.7% | 96.7% | 102% | 93.3% | 1.1 | 0.5 | 0 | 3 | 0 | > 10000 nM | > 10000 nM | > 10000 nM | 
2 | CC(C)CCN1c2nc(Nc3cc(F)c(O)c(F)c3)ncc2N(C)C(=O)[C@@H]1C [BI-D1870] | 96% | 107% | 90.2% | 83.7% | 63.1% | 105% | 98.7% | 96.5% | 86.2% | 30.9% | 102% | 103% | 99% | 98.7% | 71.4% | 95.1% | 102% | 97.5% | 96.6% | 71.1% | 105% | 92.8% | 102% | 97.6% | 58.9% | 3.5 | 6.1 | 1.4 | 1.8 | 2.4 | 1740 nM |  |  | 
3 | Cc1cc(C(=O)Nc2nc3cccc(Cl)c3n2[C@@H]2CCCCN(C(=O)/C=C/CN(C)C)C2)ccn1 [EGF816] | 102% | 95.9% | 86.9% | 51.6% | 24.6% | 104% | 106% | 102% | 82.1% | 36.8% | 101% | 98.9% | 99.3% | 98.4% | 77.3% | 95.5% | 94.3% | 98.1% | 93.7% | 72.3% | 107% | 100% | 96% | 94.5% | 32.1% | 10.8 | 6.2 | 1 | 2.1 | 4.6 | 1450 nM | > 10000 nM | 2500 nM | 512 nM
4 | Nc1ccc2ncnc(NCCc3ccc(Oc4ccccc4)cc3)c2c1 [EVP4593] | 106% | 98.9% | 97.7% | 92.1% | 86.5% | 93.5% | 90.2% | 91.1% | 73.3% | 77% | 103% | 96.3% | 94.7% | 67.4% | 64.5% | 104% | 96.9% | 88% | 78.4% | 74.5% | 109% | 109% | 78.1% | 20.2% | 19.4% | 0.3 | 4.4 | 6.3 | 4.3 | 18 |  |  | 149 nM | > 10000 nM
5 | NC(=S)N/N=C/c1coc2ccccc2c1=O.[Cl][Cu][Cl] [FPA-124] | 104% | 103% | 102% | 99% | 106% |  |  |  |  |  | 105% | 99.1% | 101% | 97.3% | 99.8% | 106% | 103% | 96.1% | 104% | 70.4% | 94.5% | 101% | 97.5% | 109% | 95.3% | 0 |  | 0 | 1 | 0 |  | > 10000 nM | > 10000 nM | > 10000 nM
6 | CCCCOc1ccc(CC/C=C2\SC(=O)N(CCN)C2=O)cc1 [K145] | 92.1% | 108% | 87.1% | 101% | 92.5% | 108% | 103% | 101% | 104% | 92% | 89.3% | 97.1% | 91.4% | 93.1% | 83.1% | 97.9% | 106% | 95.1% | 91.2% | 73.9% | 107% | 102% | 95% | 95.4% | 82.7% | 0 | 0 | 0 | 1.7 | 0.6 | > 10000 nM | > 10000 nM | > 10000 nM | > 10000 nM
7 | Cc1sc2c(c1C)C(c1ccc(Cl)cc1)=N[C@@H](CC(=O)Nc1ccc(O)cc1)c1nnc(C)n1-2 [OTX015] | 109% | 113% | 108% | 82.3% | 55.9% | 97.5% | 92.7% | 84.5% | 21.8% | 8% | 99.7% | 102% | 89.3% | 62.9% | 38.8% | 105% | 94.5% | 95.6% | 84.6% | 53.1% | 106% | 110% | 85.1% | 47.4% | 24.9% | 4.7 | 16.3 | 8.2 | 4.3 | 11.6 | 298 nM | 592 nM | 434 nM | 
